Tests used:
[1] = Acoustic backscatter (gray scale intensity) after injection into water beaker at 37° C.; conditions: 0.2 mL neat liquid (1111 micromoles) into 1000 mL water at 37° C.
Procedure: The criticality that the low boiling liquid be present as a finely divided dispersion rather than as a neat liquid was determined by measuring the acoustic backscatter of the two states.
Two solutions were prepared to simulate the administration to an organism of either a colloidal dispersion of a low boiling liquid or the liquid neat. These were scanned at 5.0 MHz with a Hewlett Packard Model 77020 ultrasound scanner and the images obtained recorded on Sony ES VHS tape. The analog images from the tape were then converted to a digital form using the software package Global Lab Image Software (Data Translation, Marlboro, Mass.). The gray scale intensity within a 4900 pixel (70×70 pixel-sized) region-of-interest was then measured before and after the injection of the colloidal dispersion of Example 19 and the same quantity of neat dodecafluoropentane into a 1000 mL water beaker equilibrated at 37° C.
The measurements were performed on a gray scale of 2 to 254. […] The injection of 0.1 mL of this emulsion produced a change of intensity to 236 five seconds post-injection and 182 fifty-two seconds post-injection.
The same experiment was performed with a 0.2 mL injection of neat dodecafluoropentane. This corresponds to 1111 micromoles of dodecafluoropentane, over 300-times the quantity in the experiment above. […]

[2] = Interfacial tension against dodecafluoropentane, Kruss Drop Volume Tensiometer; assay type: physicochemical; conditions: Pluronic P-123 / F-127 mixtures, 4° C.
dogs = conditions: cited from earlier work
[3] = 760 mm Hg and 15° C., Gas Data Book; cited from earlier work
[4] = Calculated change in dispersion size from liquid and gas densities; assay type: physicochemical; conditions: calculated from cubic root of volume
Procedure: One can also calculate the expected change in dispersion size if one knows the relative densities of the dispersed liquid as a gas and liquid. For example, the Gas Data Book, by W Braker and A Mossman, Matheson, contains such data. Examining octafluorocyclobutane, one finds that 1 L of the liquid yields 188 L of gas at a pressure of 760 mm Hg and 15° C. Since the volume of a sphere is related to the diameter of a sphere by the cubic root of the volume, the phase transition for an octafluorobutane emulsion particle will cause a 5.7-fold increase in diameter.

Compound: FC(F)(F)C(F)(F)C(F)(F)C(F)(F)C(F)(F)F [dodecafluoropentane]
- image intensity (gray scale of 2 to 254) ([1]; fifty-two seconds post-injection): 5.0
- image intensity (gray scale of 2 to 254) ([1]; five seconds post-injection): 7.7
- HLB from graphed interfacial tension data [2]: about 14

Compound: CCOCC [ether]
- toxicity (dogs; Injections of 20 mL): fatal
- contrast effect on Doppler signal (dogs; intraarterial, detected five cm below injection site): greatest contrast effect

Compound: FC1(F)C(F)(F)C(F)(F)C1(F)F [octafluorocyclobutane]
- gas volume from 1 L of the liquid [3]: 188 L
- increase in diameter of emulsion particle on phase transition [4]: 5.7 fold

Source: patent US20030032879A1, “Microbubble formation using ultrasound” (priority 1997, published 2003)
